From patent US20230105701A1, “DISSOLUTION-ENHANCED OLAPARIB COMPOSITION” (SHANGHAI INSTITUTE OF MATERIA MEDICA, CHINESE ACADEMY OF …, priority 2020, published 2023)

How the values were obtained:
[1] = Solubility test (supersaturated solubility by HPLC); assay type: physicochemical; conditions: pH 4.0 citric acid/disodium hydrogen phosphate buffer, aqueous buffer, thermodynamic from solid, pH 4.0 citrate buffer, 37° C., shaker 100 rpm, equivalent to 10 mg olaparib in 5 ml, average of 2 runs
Procedure: The dissolution-enhanced olaparib compositions prepared in Preparation Examples 1-3 and Comparative Examples 1-8 and the olaparib API (free base) were taken in an amount equivalent to 10 mg of olaparib, dispersed in 5 ml of a pH 4.0 buffer (citric acid: 21 g/L: disodium hydrogen phosphate 71.63 g/L=61.45:38.55) as the solvent and shaken in a shaker at 100 rpm for 2 h at 37° C., and sampled. The samples were centrifugal filtered and measured by HPLC to determine the supersaturated solubility. The average value was obtained from 2 parallel runs.
The operation conditions of the HPLC were:
Apparatus: A liquid chromatograph with a UV detector;
Chromatographic Waters Sunfire C18, 4.6 mm*50 mm
Eluent: A: 0.1% TFA in water; B: 0.1% TFA in acetonitrile;

[2] = cited from earlier work
[3] = within the physiological pH range; cited from earlier work

solubility at 2 h [1]: 118 µg/mL
Structure (SMILES): O=C(c1cc(Cc2n[nH]c(=O)c3ccccc23)ccc1F)N1CCN(C(=O)C2CC2)CC1 [Olaparib API, 1-(cyclopropanoyl)-4-[5-[(3,4-dihydro-4-oxo-1-phthalazinyl)methyl]-2-fluorobenzoyl]piperazine]
permeability [2]: medium
solubility [3]: less than 0.2 mg/ml
